The text below walks through data of patent publication US20060058243A1, “Methods and compositions for treating diabetes mellitis” (priority 2002, published 2006).

Data set [1] concerns 3T3-L1 adipocytes. Description: Glucose transport stimulatory (GTS) activity, 2-deoxy-D-[3H]glucose uptake. The note with it: for GTS activity (in words): 3T3-L1 cell system; for glucose uptake by the cells: 20-40 μM. The class given is cell-based. How it is done: (§1) PGG, either as a mixture or as single isomer (α or β), is added to either adipocytes (A) or preadipocytes (B). GTS activity (A) and AD activity (B) of PGG are measured by ^3H-glucose uptake. GLUT4 is not expressed in preadipocytes, so glucose uptake can be used as an indirect measurement of adipocyte differentiation.
Glucose uptake activity in cells may be analyzed by measuring the uptake of 2-deoxy-D-[^3H] glucose using a standard assay. Confluent 3T3-L1 adipocytes grown in 12-well plates are washed twice with serum-free DMEM and incubated with 1 mL of the same medium at 37° C. for 2 h. The cells are washed 3 times with Krebs-Ringer-Hepes (KRP) buffer and incubated with 0.9 mL KRP buffer at 37° C. for 30 min. […] Glucose uptake is initiated by addition of 0.1 mL KRP buffer and 37 MBq/L 2-deoxy-D-[^3H] glucose and 1 mmol/L glucose as final concentrations. After 10 min, glucose uptake is terminated by washing the cells 3 times with cold PBS. The cells are lysed with 0.7 mL of 1% Triton X-100 at 37° C. for 20 min. The radioactivity retained by the cell lysates is determined by a scintillation counter. The dosage that induces the maximal glucose uptake can be selected among the experimental samples.
3T3-L1 adipocytes were purchased from ATCC, and maintained and passed as preadipocytes in DMEM supplemented with 10% calf serum in a 37° C. incubator with 10% CO2 as required by the cells. The cells were induced to differentiate into adipocytes by addition of MDI induction cocktail as described in Liu, F., Kim, J., Li, Y., Liu, X., Li, J. & Chen, X. (2001) An extract of Lagerstroemia speciosa L. has insulin-like glucose uptake-stimulatory and adipocyte differentiation-inhibitory activities in 3T3-L1 cells. J. Nutrition 131:2242-224, which is specifically incorporated herein by reference. Varying amounts of α-PGG and β-PGG were then added to the medium and the amount of glucose taken up by control and treated cells determined using a standard glucose uptake assay, as described in Liu et al. As shown in FIG. 2A chemically synthesized and plant derived β-PGG have similar glucose transport stimulatory (GTS). The GTS activity of α-PGG is consistently 10-20% higher than that of β-PGG (FIG. 2).
Confluent 3T3-L1 adipocytes grown in 12-well plates were washed twice with serum-free DMEM and incubated with 1 mL of the same medium at 37° C. for 2 h. The cells were washed 3 times with Krebs-Ringer-Hepes (KRP) buffer and incubated with 0.9 mL KRP buffer at 37° C. for 30 min. Compounds listed in the table below were then added at 20-40 μM (final concentration?) and adipocytes were incubated at 37° C. for 15 min. Glucose uptake was initiated by addition of 0.1 mL KRP buffer and 37 MBq/L 2-deoxy-D-[3H] glucose and 1 mmol/L glucose as final concentrations. After 10 min, glucose uptake was terminated by washing the cells 3 times with cold PBS. The cells were lysed with 0.7 mL of 1% Triton X-100 at 37° C. for 20 min. The radioactivity retained by the cell lysates is determined by a scintillation counter.

Data set [2] has as its target T1, insulin receptor IR in 3T3-L1 adipocytes (Mus musculus, UniProt P15208).
T1 construct: host or cells: 3T3-L1 adipocytes
Kind of data set: 125I-insulin binding in the presence of PGG. The note with it: FIG. 4.

For data set [3], the system named is gelatin, BSA, ovalbumin. Description: Competitive protein binding assay with 125I BSA tracer. The note with it: FIG. 5. How it is done:
A fixed quantity of ^125I BSA was incubated with PGG in the presence of variable amount of either cold gelatin, or BSA, or ovalbumin. Bound was separated from free by precipitation and was expressed as the % bound in the absence of competitor.
A competitive binding assay using radiolabeled bovine serum albumin (BSA) as the tracer was used to determine whether PGG can bind proteins selectively. The relative affinities of three standard proteins for PGG differ from one another by at least 10-fold (FIG. 5), and the difference of the binding affinities of PGG to gelatin and ovalbumin is more than 100-fold.

Data set [4] relates to Akt in 3T3-L1 adipocytes. Description: Western blot of Akt phosphorylation. The class given is cell-based. The note with it: PGG 15 μM and 30 μM, FIG. 7. The text has this:
Differentially treated adipocytes were lysed, the cell proteins analyzed by SDS-PAGE.
Background: A western blot detects proteins with antibodies after separation by electrophoresis.

Data set [5] concerns 3T3-L1 preadipocytes. Kind of data set: Adipocyte differentiation (AD) of preadipocytes, MDI induction, Oil Red O staining and glucose uptake. The class given is cell-based. How it is done:
as §1
Ten days after induction, the cells were stained with Oil Red 0 and photographed at magnification X200. Only those cells that contain fat vesicles (triglyceride) can be stained.
After about 10 days MDI induces differentiation, which is clearly visible as the change from fibroblast-like preadipcytes to round-shaped, fat vesicle-containing adipocytes.
3T3-L1 adipocytes were purchased from ATCC, and maintained and passed as preadipocytes in DMEM supplemented with 10% calf serum in a 37° C. incubator with 10% CO2 as required by the cells. To test the effect of PGG on adipogenesis, the preadipocytes were incubated either with a differentiation-induction cocktail comprised of 3-isobutyl-1-methylxanthine, […], a cocktail comprised of 3-isobutyl-1-methylxanthine, dexamethasone (MD) and PGG; or with MDI plus PGG.
In order to study the mechanism by which PGG inhibits 3T3-L1 preadipocyte differentiation, we used gene expression studies. This strategy allows us to determine whether PGG specifically acts on genes that participate in the differentiation process. […] After about 10 days MDI induces differentiation, which is clearly visible as the change from fibroblast-like preadipcytes to round-shaped, fat vesicle-containing adipocytes (FIG. 8 middle).

For data set [6], the system named is PPARγ and C/EBPα gene expression in 3T3-L1 preadipocytes. Kind of data set: Northern blot analysis of differentiation gene expression. The class given is cell-based. The note with it: FIG. 9. How it is done: FIG. 9. Northern blot analysis of PPARγ and C/EBPα gene expression in 3T3-L1 preadipocytes. Differentially treated preadipocytes were analyzed for their mRNA expression at various times post treatment. Lane 1: No treatment; Lane 2=MDI; Lane 3=30 μM PGG+MDI; Lane 4=30 μM of PGG alone. Times=times post treatment when mRNA was isolated.
At various times the treated cells were harvested, the total RNA was isolated, and expression was analyzed by Northern blots using probes complementary to various genes that are involved in the differentiation process.

Data set [7] concerns ob/ob mice. Kind of data set: Glucose tolerance test in ob/ob mice. The class given is in vivo. Particulars: ob/ob mice. How it is done: FIG. 11. Effect of PGG on blood glucose levels in db/db and ob/ob mice. Various doses of α-PGG were orally delivered without glucose to db/db mice(A) or with glucose to ob/ob mice (B) mice. At different times post the delivery, glucose was determined in samples from tail blood.
FIG. 12. PGG protects ob/ob mice from hyperglycemia immediately after glucose challenge and hypoglycemia several days after the challenge. At various time points after the glucose challenge, blood glucose levels were measured in tail blood.
To determine if α-PGG is also effective in improving glucose tolerance in diabetic and obese mice, a glucose tolerance test was performed using ob/ob mice. Glucose or glucose plus α-PGG were orally delivered into male ob/ob mice, and blood glucose levels were measured at various times post glucose/PGG administration.
A single high does of glucose in ob/ob mice can be fatal, either because of the very high levels of blood glucose levels […] after the glucose challenge or because of the abnormally low glucose levels 2-3 days after the glucose challenge. […] Although the protection mechanisms are unknown at this time, it is very likely that α-PGG protected the ob/ob mice not only by its GTS activity, but also some other activity such as AD-related activity.

Data set [8] deals with Normal (healthy) mice. Description: Blood glucose in normal mice at basal glucose level (hypoglycemia test). The note with it: given 120 min after 40 mg oral glucose; PGG oral, insulin intraperitoneal. How it is done: Normal (healthy) mice were orally fed with 40 mg of glucose at time zero. […] Thus, PGG reduces blood glucose level when it is higher than normal.
The test system of data set [9] is 3T3-L1 adipocytes. Description: Glucose transport induced by insulin or PGG in the presence of insulin-signaling pathway inhibitors. The class given is cell-based. The note with it: FIG. 6. How it is done:
The glucose transport activity of the treated cells was measured by ^3H glucose taken up by the cells. HNMPA-(AM)3 inhibits IR Tyr kinase activity, Cytochalasin B inhibits GLUT4, Wortmannin inhibits PI-3K, respectively.

Data set [10] relates to 3T3-L1 preadipocytes. Description: Clonal expansion / cell proliferation assay by LDH activity. The class given is cell-based. The note with it: in the presence of MDI, FIG. 10. How it is done: Preadipocytes were induced to undergo clonal expansion by MDI, or α-PGG, or β-PGG in the presence of MDI. 24 or 48 hrs after induction, the media was removed and the cells were lysed. The […] (LDH) activity of the cell lysates was measured by LDH kit. Cell growth media were also collected and their LDH activity from dead cells was also measured (not shown on this graph). LDH activity is a constant per cell in a given cell type, the LDH activity measured is proportional to the number of cells in the samples.
A cell proliferation assay was used to determine if PGG inhibits adipocyte differentiation by blocking clonal expansion. […] The basis for the difference between the anomers in clonal expansion and differentiation is not known.

Entries after “also recorded” stand apart in the source; their conditions may differ.

T1 sequence (P15208 28-748 limits assumed): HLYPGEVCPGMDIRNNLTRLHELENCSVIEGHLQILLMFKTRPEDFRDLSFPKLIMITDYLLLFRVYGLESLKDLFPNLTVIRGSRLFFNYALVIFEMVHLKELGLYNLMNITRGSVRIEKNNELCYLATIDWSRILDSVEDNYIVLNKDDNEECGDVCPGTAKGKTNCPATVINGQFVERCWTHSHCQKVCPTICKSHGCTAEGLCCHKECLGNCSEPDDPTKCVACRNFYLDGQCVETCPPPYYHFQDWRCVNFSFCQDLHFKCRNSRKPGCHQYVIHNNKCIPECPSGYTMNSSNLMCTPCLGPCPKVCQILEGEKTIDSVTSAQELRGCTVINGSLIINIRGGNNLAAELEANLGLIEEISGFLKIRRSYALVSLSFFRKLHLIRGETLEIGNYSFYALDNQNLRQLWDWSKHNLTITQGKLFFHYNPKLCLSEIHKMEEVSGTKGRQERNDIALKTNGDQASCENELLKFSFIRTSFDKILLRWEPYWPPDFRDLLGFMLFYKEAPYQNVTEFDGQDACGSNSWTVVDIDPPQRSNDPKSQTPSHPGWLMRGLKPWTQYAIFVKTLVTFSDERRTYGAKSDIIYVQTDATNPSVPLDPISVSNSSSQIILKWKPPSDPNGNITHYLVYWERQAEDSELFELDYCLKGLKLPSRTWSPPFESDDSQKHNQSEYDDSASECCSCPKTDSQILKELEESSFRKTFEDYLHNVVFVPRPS
T1 sequence (P15208 753-1372 limits assumed): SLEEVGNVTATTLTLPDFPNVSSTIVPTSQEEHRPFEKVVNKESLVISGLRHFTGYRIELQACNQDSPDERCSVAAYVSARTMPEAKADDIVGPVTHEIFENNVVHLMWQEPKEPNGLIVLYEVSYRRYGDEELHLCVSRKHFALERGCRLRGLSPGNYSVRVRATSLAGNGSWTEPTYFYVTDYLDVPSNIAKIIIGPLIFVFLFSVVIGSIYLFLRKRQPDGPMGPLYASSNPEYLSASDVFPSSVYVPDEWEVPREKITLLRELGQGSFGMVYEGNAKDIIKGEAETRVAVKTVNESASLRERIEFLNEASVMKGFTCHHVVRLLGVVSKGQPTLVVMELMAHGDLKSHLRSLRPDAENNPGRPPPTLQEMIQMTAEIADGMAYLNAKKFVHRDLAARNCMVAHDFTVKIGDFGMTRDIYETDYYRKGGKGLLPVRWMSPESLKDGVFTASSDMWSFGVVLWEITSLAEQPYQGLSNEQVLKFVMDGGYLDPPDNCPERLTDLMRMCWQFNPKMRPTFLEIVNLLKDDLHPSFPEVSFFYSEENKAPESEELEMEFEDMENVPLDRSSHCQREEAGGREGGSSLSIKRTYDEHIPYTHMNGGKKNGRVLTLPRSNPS

As to `O=C(O[C@@H]1Cc2c(O)cc(O)cc2O[C@@H]1c1cc(O)c(O)c(O)c1)c1cc(O)c(O)c(O)c1` [EGCG, reference compound], the “GTS activity (in words)” value in data set [1] was “no activity”.

With `O=C[C@H](OC(=O)c1cc(O)c(O)c(O)c1)[C@@H](OC(=O)c1cc(O)c(O)c(O)c1)[C@H](OC(=O)c1cc(O)c(O)c(O)c1)[C@@H](COC(=O)c1cc(O)c(O)c(O)c1)OC(=O)c1cc(O)c(O)c(O)c1` [PGG, penta-O-galloyl-D-glucose], the “GTS activity (in words)” value in data set [1] was “high activities”. Also, the “competition with / displacement of insulin at the insulin binding site on IR” value in data set [2] (8 pM 125I-insulin, 0.1 to 20 μM PGG, overnight 4° C.) is reported as “does not compete with insulin; also recorded: unable to displace insulin from IR”. Further, the “insulin binding at higher PGG concentrations” value in [2] (PGG above 20 μM) is “Insulin binding increased”. Besides, the “difference of binding affinities of PGG to gelatin and ovalbumin” value in [3] was “more than 100 fold”. The “difference between relative affinities of three standard proteins for PGG” value in data set [3] (gelatin, BSA, ovalbumin) was “at least 10 fold”. Besides, the “phosphorylation of Akt” value in data set [4] was “phosphorylated”. Besides, in data set [5] (MD plus PGG, FIG. 2B), the “induction of differentiation when insulin in MDI was substituted by PGG” value is on record as “failed to induce differentiation”. The “differentiation of preadipocytes treated with MDI plus compound” value in data set [5] (about 10 days, 30 μM PGG, FIG. 8) was “retain their fibroblast-like morphology and remain fat vesicle-free”. In addition, the “expression of genes PPAR-γ, c/EBP induced by MDI” value in data set [6] (30 μM PGG+MDI) was “completely abolished”. In addition, the β-actin expression entry in data set [6] is on record as “not significantly affected”. The toxic effects result in [7] was “No PGG-related toxic effects were observed”. In [8], the “hypoglycemia / blood glucose below basal levels” value is recorded as “does not further reduce bood glucose levels beyond normal or basal levels”.

Take `O=C(OC[C@H]1OC(OC(=O)c2cc(O)c(O)c(O)c2)[C@H](OC(=O)c2cc(O)c(O)c(O)c2)[C@@H](OC(=O)c2cc(O)c(O)c(O)c2)[C@H]1OC(=O)c1cc(O)c(O)c(O)c1)c1cc(O)c(O)c(O)c1` (stereo partly shown) [PGGal, Pentagalloyl galactose]: the “GTS activity relative to PGG” value in [1] (3T3-L1 cells) was 60-70%.

`C=C1[C@@H](C)[C@H]2[C@H](Cc3ccccc3)NC(=O)[C@]23OC(=O)/C=C/[C@H](O)CCC[C@@H](C)C/C=C/[C@H]3[C@@H]1O` [cytochalasin B]: in data set [9], the “inhibition of the GTS activity mediated by either insulin or PGG” value is listed as “completely inhibited”.

`O=C(O[C@H]1OC[C@@H](OC(=O)c2cc(O)c(O)c(O)c2)[C@H](OC(=O)c2cc(O)c(O)c(O)c2)[C@H]1OC(=O)c1cc(O)c(O)c(O)c1)c1cc(O)c(O)c(O)c1` [α-XylG4, Tetrakis-O-(3,4,5-trihydroxybenzoyl) -α-D-xylopyranose]: the “glucose uptake by the cells” value in [1] (3T3-L1 adipocytes) was “increased glucose uptake”.

Turning to `O=C(OC[C@H]1O[C@@H](OC(=O)c2ccc(O)c(O)c2)[C@H](OC(=O)c2ccc(O)c(O)c2)[C@@H](OC(=O)c2ccc(O)c(O)c2)[C@@H]1OC(=O)c1ccc(O)c(O)c1)c1ccc(O)c(O)c1` [β-Glc(G-3,4-OH2)5, Pentakis-O-(3,4-dihydroxybenzoyl) -β-D-glucopyranose], the “glucose uptake by the cells” value in data set [1] (3T3-L1 adipocytes) is on record as “increased glucose uptake”.

As for `O=C(OC[C@H]1O[C@@H](OC(=O)c2cc(O)c(O)c(O)c2)[C@H](OC(=O)c2cc(O)c(O)c(O)c2)[C@@H](OC(=O)c2cc(O)c(O)c(O)c2)[C@@H]1OC(=O)c1cc(O)c(O)c(O)c1)c1cc(O)c(O)c(O)c1` [β-PGG, 1,2,3,4,6-penta-O-galloyl-β-D-glucose], the “GTS activity, synthesized versus plant derived β-PGG” value in data set [1] (3T3-L1 adipocytes, FIG. 2A) is “similar”. In [10], the “first round of clonal expansion” value is reported as “not inhibited” and the “second round of clonal expansion” value was “completely inhibited”.

For the molecule “insulin: hormone, positive control [reference compound]”, the “hypoglycemia / blood glucose below basal levels” value in [8] was “resulted in a hypoglycemic condition”.

As for pentagalloyl deoxynojirimycin [PG-DJM], the “GTS activity (in words)” value in data set [1] is given as “no detectable GTS activity”.
